From patent US8440637B2, “Combination treatment for the treatment of hepatitis C virus infection” (priority 2007, dated 2013) come the findings set out here.

Strand notation (5' to 3'): a small letter for the sugar, then the base; units joined by * are phosphorothioate-linked, units joined directly phosphodiester-linked; [ ] holds rarer units or linkages, { } end groups; capitals alone tell only the bases. l = locked nucleic acid (LNA); [5mC] = 5-methylcytosine; d = 2'-deoxy (DNA)

Data set [1] has as its system miR-122a. The experiment in a line: Melting temperature (Tm) of LNA anti-miR/miR-122a RNA duplex. Type of data set: physicochemical, human. To be noted: for Tm, oligo to miR-122 RNA complement: miR-122a; for Tm (° C.): Table 2, towards synthetic miR-122a RNA oligonucleotide with phosphorothioate linkages, PS backbone. As to the method:
The melting temperatures were assessed towards the mature miR-122a sequence, using a synthetic miR-122a RNA oligonucleotide with phosphorothioate linkaged.
(§1) The LNA anti-miR/miR-122a oligo duplex was diluted to 3 μM in 500 μl RNase free H2O, which was then mixed with 500 μl 2× dimerization buffer (final oligo/duplex conc. 1.5 μM, 2× Tm buffer: 200 mM NaCl, 0.2 mM EDTA, 20 mM NaP, pH 7.0, DEPC treated to remove RNases). The mix was first heated to 95 degrees for 3 minutes, then allowed to cool at room temperature (RT) for 30 minutes.
(§2) Following RT incubation Tm was measured on Lambda 40 UV/VIS Spectrophotometer with peltier temperature progammer PTP6 using PE Templab software (Perkin Elmer). The temperature was ramped up from 20° C. to 95° C. and then down again to 20° C., continuously recording absorption at 260 nm. First derivative and local maximums of both the melting and annealing was used to assess melting/annealing point (Tm), both should give similar/same Tm values. For the first derivative 91 points was used to calculate the slope.

Another data set deals with HCV replicon (NNeo/C-5B). The experiment in a line: HCV replication in Huh-7 cells transfected with HCV replicon, Northern blot. The format is cell-based, Hepatitis C virus. To be noted: Huh-7 with HCV replicon; 48 hours; compared to mock and mismatch control. As to the method: We assess the efficacy of SEQ ID NO: 63 reducing HCV replication in the Huh-7 based cell model. Preliminary data on SEQ ID NO: 63 along with its truncated version SEQ ID NO: 66 (13-mer LNA-antimiR) and 4 nt mismatch control from inhibiting HCV replication in the Huh-7 cell line transfected with a HCV replicon (NNeo/C-5B). The different LNA-antimiR molecules along with a 2′ OMe antisense and scramble oligonucleotide were transfected into Huh-7 cells, HCV was allowed to replicate for 48 hours. Total RNA samples extracted from the Huh-7 cells were subjected to Northern blot analysis.
On the technique in general: A replicon is a self-replicating genome or part of one, used to study replication in cells.

Data set [2] concerns miR-122a. The experiment in a line: Plasma cholesterol in LNA anti-miR122 treated mice. The format is in vivo, mouse. To be noted: Day 6; i.p. on day 0, 2 and 4. As to the method: In vivo study: Ten groups of animals (female C57/BL6; 3 mice per group) were treated in the following manner. Group 1 animals were injected with 0.2 ml saline by i.p. on day 0, day 2 and day 4. Groups 2-10 were dosed by i.p. with three different conc. (25 mg/kg, 5 mg/kg and 1 mg/kg) of either LNA antimiR-122a/SEQ ID NO: 61 (group 2-4), LNA antimir-122a/SEQ ID NO: 66 (group 5-7) or LNA antimir-122a/SEQ ID NO: 63 (group 8-10); the LNA antimir-122a sequences are given in the Table 1. All three LNA antimiR-122a oligonucleotides target the liver-specific miR-122a. The doses were calculated from the Day 0 body weights of each animal.
The animals were sacrificed 48 hours after last dose (Day 6), retro-orbital blood was collected in tubes containing EDTA and the plasma fraction harvested and stored frozen −80° C. for cholesterol analysis. At sacrifice livers were dissected and one portion was cut into 5 mm cubes and immersed in 5 volumes of ice-cold RNAlater. […]
Total cholesterol level was measured in plasma using a colometric assay Cholesterol CP from ABX Pentra. Cholesterol was measured following enzymatic hydrolysis and oxidation (2,3). […] 250 μl reagent was added and within 5 min the cholesterol content measured at a wavelength of 540 nm. […] The cholesterol level was determined by subtraction of the background and presented relative to the cholesterol levels in plasma of saline treated mice.

Another data set deals with miR-122. Kind of data set: microRNA specific northern blot of mouse liver RNA. The format is in vivo. As to the method: We decided to assess the effect of SEQ ID NO:63 on miR-122 miRNA levels in the livers of SEQ ID NO: 63-treated mice. The LNA-antimiRs SEQ ID NO:63 and SEQ ID NO: 61 were administered into mice by three i.p. injections on every second day over a six-day-period at indicated doses followed by sacrificing the animals 48 hours after the last dose. Total RNA was extracted from the livers. miR-122 levels were assessed by microRNA specific northern blot (FIG. 6)
The liver RNA was also subjected to microRNA Northern blot. Shown in FIG. 13 is a membrane probed with a miR-122a specific probe (upper panel) and re-probed with a Let-7 specific probe (lower panel). With the miR-122 probe, two bands could be detected, one corresponding to mature miR-122 and one corresponding to a duplex between SEQ ID NO: 61 and miR-122.
Preparation of northern membranes was done as described in Sempere et al. 2002, except for the following changes: Total RNA, 10 μg per lane, in formamide loading buffer (47.5% formamide, 9 mM EDTA, 0.0125% Bromophenol Blue, 0.0125% Xylene Cyanol, 0.0125% SDS) was loaded onto a 15% denaturing Novex TBE-Urea polyacrylamide gel (Invitrogen) without preheating the RNA. The RNA was electrophoretically transferred to a GeneScreen plus Hybridization Transfer Membrane (PerkinElmer) at 200 mA for 35 min. Membranes were probed with 32P-labelled LNA-modified oligonucleotides complimentary to the mature microRNAs*. The LNA oligonucleotides were labelled and hybridized to the membrane as described in (Válóczi et al. 2004) except for the following changes: The prehybridization and hybridization solutions contained 50% formamide, 0.5% SDS, 5×SSC, 5×Denhardt's solution and 20 μg/ml sheared denatured herring sperm DNA. Hybridizations were performed at 45° C. The blots were visualized by scanning in a Storm 860 scanner. The signal of the background membrane was subtracted from the radioactive signals originating from the miRNA bands. The values of the miR-122 signals were corrected for loading differences based on the let-7a signal. […]

In another data set the test system is 122R, DNA. The experiment in a line: Melting temperature (Tm) of oligo against DNA complement. Type of data set: physicochemical. As to the method:
as §1, §2
However, in one embodiment the Tm may be made with a complementary DNA ([…]) molecule. Typically the Tm measured against a DNA complementary molecule is about 10° C. lower than the Tm with an equivalent RNA complement. The Tm measured using the DNA complement may therefore be used in cases where the duplex has a very high Tm.

Turning to “5′-AttGTcaCaCtCC-3′ (antisense lA*dT*dT*lG*lT*dC*dA*l[5mC]*dA*l[5mC]*dT*l[5mC]*l[5mC]) [SEQ ID NO: 66]”, the “Tm, oligo to miR-122 RNA complement” value in the data set on miR-122a [1] was 74 °C. Besides, in the data set with HCV replicon (NNeo/C-5B), the “HCV RNA / inhibition of HCV replication (in words)” value is recorded as “comparable efficacy with SEQ ID NO: 63”. The “plasma cholesterol compared to saline control (in words)” value with miR-122a [2] is “markedly lowered level of plasma cholesterol”.

As to “5′-CcAttGTcaCaCtCC-3′ (antisense CCATTGTCACACTCC; sugars from the 5' end ldlddllddldldll, backbone and methylation of C not given here) [SEQ ID NO: 63]”, in the data set with miR-122a [1], the “Tm (° C.)” value stood at 78 °C and the “Tm, oligo to miR-122 RNA complement” value is 79 °C. For the same substance, the “HCV RNA / inhibition of HCV replication (in words)” value with HCV replicon (NNeo/C-5B) was “significant reduction of HCV RNA”. For the same substance, in the data set with miR-122a [2], the “plasma cholesterol compared to saline control (in words)” value is on record as “markedly lowered level of plasma cholesterol”. In the data set on miR-122 (three i.p. injections every second day, 5 and 25 mg/kg, 48 hours after last dose), the “blocking of miR-122, northern blot (in words)” value is “completely blocked miR-122”. In addition, in the data set on miR-122 (three i.p. injections every second day, 48 hours after last dose), the “duplex versus mature band on northern blot, comparison (in words)” value was “equally efficient at 1 mg/kg as SEQ ID NO: 61SEQ ID NO: 61 at 25 mg/kg”. The “Tm, oligo to DNA complement” value with 122R, DNA is 66 °C.

“5′-ccAttGtcAcaCtcCa-3′ (antisense CCATTGTCACACTCCA; sugars from the 5' end ddlddlddlddlddld, backbone and methylation of C not given here) [SEQ ID NO: 61]”: in the data set on miR-122a [1], the “Tm (° C.)” value stood at 69 °C and the “Tm, oligo to miR-122 RNA complement” value is 69 °C. For the same substance, in the data set with miR-122 (liver RNA, let-7a control not altered), the “mature miR-122, small RNA northern blot (in words)” value is listed as “significantly reduced levels of detectable mature miR-122”. Moreover, the “Tm, oligo to DNA complement” value in the data set with 122R, DNA amounted to 57 °C.
